The results in this text go back to ChEMBL document CHEMBL5506069, “A Unique Hybridization Route to Access Hydrazylnaphthalimidols as Novel Structural Scaffolds of Multitargeting Broad-Spectrum Antifungal Candidates” (J Med Chem, 2024).

Values after ≈ are worked out from the molar mass of the structure shown.

What all share (format): functional
For experiment [1], the system named is Candida albicans. Description: Antifungal activity against Candida albicans assessed as inhibition of fungal growth incubated for 24 hrs by CLSI based microbroth dilution method. (In broth dilution the organism is exposed to a series of concentrations in liquid medium.)
Experiment [2] deals with Candida tropicalis. As to the kind of experiment: Antifungal activity against Candida tropicalis assessed as inhibition of fungal growth incubated for 24 hrs by CLSI based microbroth dilution method.
Experiment [3] deals with Aspergillus fumigatus. As to the kind of experiment: Antifungal activity against Aspergillus fumigatus assessed as inhibition of fungal growth incubated for 24 hrs by CLSI based microbroth dilution method.
In experiment [4] the test system is Candida parapsilosis. As to the kind of experiment: Antifungal activity against Candida parapsilosis ATCC 22019 assessed as inhibition of fungal growth incubated for 24 hrs by CLSI based microbroth dilution method. The following applies: Lodderomyces parapsilosis.
Experiment [5] deals with Candida albicans. Description: Antifungal activity against Candida albicans ATCC 90023 assessed as inhibition of fungal growth incubated for 24 hrs by CLSI based microbroth dilution method.

With `CCCCc1nc(Cl)c(/C=N/Nc2ccc3c4c(cccc24)C(=O)N(CCO)C3=O)n1CCO`, the MIC (as a rule, the smallest concentration in the dilution series that meets the test's criterion for growth inhibition) in experiment [1] came out at 33 µM (≈ 16 µg/mL); in experiment [2], 17 µM (≈ 8.23 µg/mL); in experiment [3], 66 µM (≈ 31.9 µg/mL); in experiment [4], 33 µM (≈ 16 µg/mL); in experiment [5], 17 µM (≈ 8.23 µg/mL).
On to `O=C1c2cccc3c(N/N=C/c4ccc(CO)o4)ccc(c23)C(=O)N1CCO`, for which the MIC in experiment [1] was 21 µM (≈ 7.97 µg/mL); in experiment [2], 5 µM (≈ 1.9 µg/mL); in experiment [3], 10 µM (≈ 3.79 µg/mL); in experiment [4], 21 µM (≈ 7.97 µg/mL); in experiment [5], 5 µM (≈ 1.9 µg/mL).
In the case of `CCCCc1nc(Cl)c(/C=N/Nc2ccc3c4c(cccc24)C(=O)N(CCO)C3=O)n1CC1CC1`, the MIC was determined as 65 µM (≈ 32.1 µg/mL) in experiment [1]; 32 µM (≈ 15.8 µg/mL) in experiment [2]; 8 µM (≈ 3.95 µg/mL) in experiment [3]; 65 µM (≈ 32.1 µg/mL) in experiment [4]; 8 µM (≈ 3.95 µg/mL) in experiment [5].
As to `CCCCc1nc(Cl)c(/C=N/Nc2ccc3c4c(cccc24)C(=O)N(CCO)C3=O)n1CC1CCCCC1`, the MIC was found to be 120 µM (≈ 64.3 µg/mL) in experiment [1]; 15 µM (≈ 8.04 µg/mL) in experiment [2]; 2 µM (≈ 1.07 µg/mL) in experiment [3]; 60 µM (≈ 32.2 µg/mL) in experiment [4]; 7 µM (≈ 3.75 µg/mL) in experiment [5].
For the compound `CCCCc1nc(Cl)c(/C=N/Nc2ccc3c4c(cccc24)C(=O)N(CCO)C3=O)n1C`, the MIC in experiment [1] amounted to 71 µM (≈ 32.2 µg/mL); in experiment [2] it was 141 µM (≈ 64 µg/mL); in experiment [3], 18 µM (≈ 8.17 µg/mL); in experiment [4] it was 565 µM (≈ 256 µg/mL); in experiment [5], 71 µM (≈ 32.2 µg/mL).
With `C/C(Cn1c([N+](=O)[O-])cnc1C)=N\Nc1ccc2c3c(cccc13)C(=O)N(c1ccc(F)c(Cl)c1)C2=O`, the MIC in experiment [1] was 491 µM (≈ 256 µg/mL); in experiment [2], 246 µM (≈ 128 µg/mL); in experiment [3], 983 µM (≈ 512 µg/mL); in experiment [4], 246 µM (≈ 128 µg/mL); in experiment [5] it was 983 µM (≈ 512 µg/mL).
Consider `CCCCCCCCN1C(=O)c2cccc3c(N/N=C(\C)Cn4c([N+](=O)[O-])cnc4C)ccc(c23)C1=O`, for which the MIC in experiment [1], in experiment [2], in experiment [3], in experiment [4] and in experiment [5] was 1020 µM (≈ 512 µg/mL) each time.
Turning to `O=C1c2cccc3c(N/N=C/c4ncc[nH]4)ccc(c23)C(=O)N1CCO`, the MIC in experiment [1] is 367 µM (≈ 128 µg/mL); in experiment [2], 92 µM (≈ 32.1 µg/mL); in experiment [3], 183 µM (≈ 63.9 µg/mL); in experiment [4], 6 µM (≈ 2.1 µg/mL); in experiment [5], 183 µM (≈ 63.9 µg/mL).
In the case of `CCCCN1C(=O)c2cccc3c(N/N=C(\C)Cn4c([N+](=O)[O-])cnc4C)ccc(c23)C1=O`, the MIC in experiment [1], in experiment [2], in experiment [3], in experiment [4] and in experiment [5] was 1140 µM (≈ 512 µg/mL) each time.
`COc1ccc(N2C(=O)c3cccc4c(N/N=C(\C)Cn5c([N+](=O)[O-])cnc5C)ccc(c34)C2=O)cc1`: the MIC in experiment [1] came to 514 µM (≈ 256 µg/mL); in experiment [2], 514 µM (≈ 256 µg/mL); in experiment [3], 1030 µM (≈ 512 µg/mL); in experiment [4], 257 µM (≈ 128 µg/mL); in experiment [5] it was 1030 µM (≈ 512 µg/mL).
On to `O=C1c2cccc3c(N/N=C/c4ccc(O)cc4O)ccc(c23)C(=O)N1CCO`, for which the MIC in experiment [1] is 327 µM (≈ 128 µg/mL); in experiment [2], 655 µM (≈ 256 µg/mL); in experiment [3] it was 327 µM (≈ 128 µg/mL); in experiment [4], 327 µM (≈ 128 µg/mL); in experiment [5] it was 655 µM (≈ 256 µg/mL).
With `O=C1c2cccc3c(N/N=C/c4ccc([N+](=O)[O-])s4)ccc(c23)C(=O)N1CCO`, the minimum inhibitory concentration (MIC) in experiment [1] was found to be 39 µM (≈ 16 µg/mL); in experiment [2], 156 µM (≈ 64 µg/mL); in experiment [3], 19 µM (≈ 7.8 µg/mL); in experiment [4], 78 µM (≈ 32 µg/mL); in experiment [5], 78 µM (≈ 32 µg/mL).
Regarding `O=C1c2cccc3c(N/N=C/c4c(Cl)cccc4Cl)ccc(c23)C(=O)N1CCO`, the MIC in experiment [1] turned out to be 150 µM (≈ 64.2 µg/mL); in experiment [2] it was 150 µM (≈ 64.2 µg/mL); in experiment [3] it was 300 µM (≈ 128 µg/mL); in experiment [4] it was 599 µM (≈ 257 µg/mL); in experiment [5], 300 µM (≈ 128 µg/mL).
As to `O=C1c2cccc3c(N/N=C/c4ccncc4)ccc(c23)C(=O)N1CCO`, the MIC in experiment [1] amounted to 355 µM (≈ 128 µg/mL); in experiment [2], 355 µM (≈ 128 µg/mL); in experiment [3], 355 µM (≈ 128 µg/mL); in experiment [4], 355 µM (≈ 128 µg/mL); in experiment [5], 711 µM (≈ 256 µg/mL).
Regarding `O=C1c2cccc3c(N/N=C/c4cccs4)ccc(c23)C(=O)N1CCO`, the MIC in experiment [1] was determined as 175 µM (≈ 63.9 µg/mL); in experiment [2], 351 µM (≈ 128 µg/mL); in experiment [3], 175 µM (≈ 63.9 µg/mL); in experiment [4], 175 µM (≈ 63.9 µg/mL); in experiment [5] it was 351 µM (≈ 128 µg/mL).
Regarding `O=C1c2cccc3c(N/N=C/c4ccco4)ccc(c23)C(=O)N1CCO`, the MIC in experiment [1] came to 87 µM (≈ 30.4 µg/mL); in experiment [2], 87 µM (≈ 30.4 µg/mL); in experiment [3], 87 µM (≈ 30.4 µg/mL); in experiment [4], 351 µM (≈ 123 µg/mL); in experiment [5] it was 175 µM (≈ 61.1 µg/mL).
For the compound `CCCCc1nc(Cl)c(/C=N/Nc2ccc3c4c(cccc24)C(=O)N(CCO)C3=O)n1Cc1cccc(F)c1`, the MIC in experiment [1] was 117 µM (≈ 64.1 µg/mL); in experiment [2] it was 58 µM (≈ 31.8 µg/mL); in experiment [3] it was 58 µM (≈ 31.8 µg/mL); in experiment [4], 29 µM (≈ 15.9 µg/mL); in experiment [5], 7 µM (≈ 3.84 µg/mL).
Consider `O=C1c2cccc3c(N/N=C/c4ccc[nH]4)ccc(c23)C(=O)N1CCO`, for which the MIC came out at 183 µM (≈ 63.8 µg/mL) in experiment [1]; 367 µM (≈ 128 µg/mL) in experiment [2]; 367 µM (≈ 128 µg/mL) in experiment [3]; 46 µM (≈ 16 µg/mL) in experiment [4]; 92 µM (≈ 32 µg/mL) in experiment [5].
